# Reference: publication PMC2267855, “Site-directed mutagenesis of Arginine282 suggests how protons and peptides are co-transported by rabbit PepT1” (The International Journal of Biochemistry & Cell Biology, 2008)
# Changes are numbered by the printed parent chain. Where a SMILES comes first, the peptide text is derived from it.
# Experiments:
# R282E-PepT1 = target: T1, R282E-PepT1 (Oryctolagus cuniculus, UniProt P36836, R282E); test: Accumulation of [3H]-D-Phe-L-Gln above the extracellular concentration by oocytes expressing R282E-PepT1; type: cell-based, rabbit; settings: R282E-PepT1, pHout 7.4, 24 h incubation
# T1 construct: expressed in transfected cells; host or cells: Xenopus laevis oocytes injected with cRNA
# T1 sequence (P36836 1-707 R282E): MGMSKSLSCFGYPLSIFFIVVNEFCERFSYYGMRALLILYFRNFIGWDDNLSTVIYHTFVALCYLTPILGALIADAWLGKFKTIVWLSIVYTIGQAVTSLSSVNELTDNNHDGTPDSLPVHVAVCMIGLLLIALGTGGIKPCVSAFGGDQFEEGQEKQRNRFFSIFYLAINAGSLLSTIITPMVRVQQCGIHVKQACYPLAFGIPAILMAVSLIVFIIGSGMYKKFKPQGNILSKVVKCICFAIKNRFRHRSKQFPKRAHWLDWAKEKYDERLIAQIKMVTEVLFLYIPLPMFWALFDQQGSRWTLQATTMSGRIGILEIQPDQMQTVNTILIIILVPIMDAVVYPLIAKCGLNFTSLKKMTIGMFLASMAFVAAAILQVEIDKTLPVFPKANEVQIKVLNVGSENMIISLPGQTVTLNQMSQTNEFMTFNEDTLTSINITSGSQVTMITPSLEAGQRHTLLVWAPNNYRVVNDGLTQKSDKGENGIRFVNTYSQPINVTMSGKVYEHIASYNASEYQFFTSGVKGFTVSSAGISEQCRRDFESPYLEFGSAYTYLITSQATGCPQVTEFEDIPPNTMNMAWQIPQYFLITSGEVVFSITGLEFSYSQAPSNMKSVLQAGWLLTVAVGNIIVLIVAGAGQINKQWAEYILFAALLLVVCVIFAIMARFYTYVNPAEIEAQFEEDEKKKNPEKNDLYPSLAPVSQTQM
# Procedure: (§1) Zero-trans uptake of [^3H]-D-Phe-L-Gln (17.4 Ci/mmole, custom synthesised, Cambridge Research Biochemicals, Stockton-on-Tees, UK) was performed as previously described ([Meredith, 2004]). Briefly, 5 oocytes were incubated in 100 μl of uptake medium (95 mM NaCl, 2 mM KCl, 1 mM CaCl2, 0.42 mM MgCl2, 10 mM Tris/Hepes pH 7.4 or Tris/Mes pH 5.5) with tracer (0.4 μM) [^3H]-D-Phe-L-Gln. After incubation, the oocytes were washed sequentially five times in 1 ml of ice-cold 120 mM NaCl solution, lysed individually with 100 μl 2% (w/v) SDS and liquid scintillation counted. As a control non-injected oocytes were also incubated in uptake medium with [^3H]-D-Phe-L-Gln as above.
# R282A-PepT1 = target: T2, R282A-PepT1 (Oryctolagus cuniculus, UniProt P36836, R282A); test: Inhibition of [3H]-D-Phe-L-Gln uptake into Xenopus oocytes expressing R282A-PepT1 (competition, Ki); type: cell-based, rabbit; settings: pHout 5.5, 0.4 μM [3H]-D-Phe-L-Gln
# T2 construct: expressed in transfected cells; host or cells: Xenopus laevis oocytes injected with cRNA
# T2 sequence (P36836 1-707 R282A): T1 sequence (P36836 1-707 R282E) with E282A
# Procedure: as §1
# (§2) The affinity of wild-type and mutant PepT1 were assessed by competition studies with 0.4 μM [^3H]-D-Phe-L-Gln and Gly-L-Gln present in the uptake medium in concentrations from 0 to 2 mM using the protocol above, and the Ki calculated using the method of [Deves and Boyd (1989)].
# wild-type rabbit PepT1 = target: T3, wild-type rabbit PepT1 (Oryctolagus cuniculus, UniProt P36836); test: Inhibition of [3H]-D-Phe-L-Gln uptake into Xenopus oocytes expressing wild-type PepT1 (competition, Ki); type: cell-based; settings: wild-type PepT1, pHout 5.5, 0.4 μM [3H]-D-Phe-L-Gln, Xenopus oocytes; read-out: Ki (inhibition of [3H]-D-Phe-L-Gln uptake)
# T3 construct: expressed in transfected cells; host or cells: Xenopus laevis oocytes injected with cRNA
# T3 sequence (P36836 1-707): T1 sequence (P36836 1-707 R282E) with E282R
# Procedure: as §1, §2
accumulation above extracellular concentration (R282E-PepT1),Ki (R282A-PepT1) [µM],Ki (wild-type rabbit PepT1) [µM],Structure (SMILES)
2.3 ± 0.4 -fold,,,NC(=O)CC[C@H](NC(=O)[C@H](N)Cc1ccccc1)C(=O)O [D-Phe-L-Gln]
,300 ± 170,390 ± 220,NCC(=O)N[C@@H](CCC(N)=O)C(=O)O [Gly-L-Gln] (H-Gly-Gln-OH)
